Measurements reported in patent publication US5789379A, “Glucagon-like peptide-2 analogs” (Allelix Biopharmaceutical Inc., priority 1996, dated 1998).
Square brackets hold non-standard residues; d marks the D form. Ends that are not written are not given here. Peptide text beside a SMILES is read from it.

Assays:
[1] = target: T1, human placental DPP-IV (Homo sapiens, UniProt P27487); assay: Assay for resistance to dipeptidyl peptidase IV; type: in vitro ADME; settings: for cleavage products detected: after 24 hours incubation with DPP-IV at 37° C., RP-HPLC
T1 construct: a solution of human placental DPP-IV (Calbiochem, La Jolla, Calif., cat. # 317624); purchased Calbiochem, La Jolla, Calif; 317624; host or cells: human placenta (tissue-derived)
T1 sequence (P27487 whole entry): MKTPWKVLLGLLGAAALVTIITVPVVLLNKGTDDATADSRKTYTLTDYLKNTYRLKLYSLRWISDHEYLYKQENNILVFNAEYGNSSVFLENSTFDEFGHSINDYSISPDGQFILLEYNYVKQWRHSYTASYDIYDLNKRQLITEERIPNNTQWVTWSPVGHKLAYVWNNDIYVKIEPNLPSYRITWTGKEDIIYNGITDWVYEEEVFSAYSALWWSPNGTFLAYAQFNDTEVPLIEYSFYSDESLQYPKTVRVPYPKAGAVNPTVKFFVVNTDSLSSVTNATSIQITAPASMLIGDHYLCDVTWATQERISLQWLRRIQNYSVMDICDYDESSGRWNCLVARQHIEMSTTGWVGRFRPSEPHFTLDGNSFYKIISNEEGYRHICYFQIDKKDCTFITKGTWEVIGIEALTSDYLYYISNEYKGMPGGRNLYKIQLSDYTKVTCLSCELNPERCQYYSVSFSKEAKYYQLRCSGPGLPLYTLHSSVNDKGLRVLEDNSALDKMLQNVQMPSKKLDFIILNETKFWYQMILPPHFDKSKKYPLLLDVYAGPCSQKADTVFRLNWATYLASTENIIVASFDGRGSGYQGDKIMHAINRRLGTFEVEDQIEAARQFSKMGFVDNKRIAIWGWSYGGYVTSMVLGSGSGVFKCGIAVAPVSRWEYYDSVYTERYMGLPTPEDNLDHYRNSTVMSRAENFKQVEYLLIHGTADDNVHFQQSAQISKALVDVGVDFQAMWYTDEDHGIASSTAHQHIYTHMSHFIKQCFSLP
Description: Each peptide was tested in duplicate.
Sample components were detected at 214 nanometers (nm).

[2] = system: rat liver and brain tissues; settings: cited from earlier work
[3] = system: adenylate cyclase; settings: rat hypothalamic and pituitary tissue; cited from earlier work
[4] = system: adenylate cyclase; settings: liver plasma membranes; cited from earlier work

Compound: HADGSFSDEMNTILDNLATRDFINWLIQTKITD [compound 1, rGLP-2]
- peptide cleaved by DPP-IV ([1]; 24 hour incubation at 37° C., 0.2 mg/ml peptide in PBS pH 7.4, RP-HPLC): 22%

Compound: CC[C@H](C)[C@H](NC(=O)[C@H](Cc1ccccc1)NC(=O)[C@H](CC(=O)O)NC(=O)[C@H](CCCNC(=N)N)NC(=O)[C@@H](NC(=O)[C@H](C)NC(=O)[C@H](CC(C)C)NC(=O)[C@H](CC(N)=O)NC(=O)[C@H](CC(=O)O)NC(=O)[C@H](CC(C)C)NC(=O)[C@@H](NC(=O)[C@@H](NC(=O)[C@H](CC(N)=O)NC(=O)[C@H](CCSC)NC(=O)[C@H](CCC(=O)O)NC(=O)[C@H](CC(=O)O)NC(=O)[C@H](CO)NC(=O)[C@H](Cc1ccccc1)NC(=O)[C@H](CO)NC(=O)CNC(=O)[C@H](CC(=O)O)NC(=O)[C@@H](C)NC(=O)[C@@H](N)Cc1c[nH]cn1)[C@@H](C)O)[C@@H](C)CC)[C@@H](C)O)C(=O)N[C@@H](CC(N)=O)C(=O)N[C@@H](Cc1c[nH]c2ccccc12)C(=O)N[C@@H](CC(C)C)C(=O)N[C@H](C(=O)N[C@@H](CCC(N)=O)C(=O)N[C@H](C(=O)N[C@@H](CCCCN)C(=O)N[C@H](C(=O)N[C@H](C(=O)N[C@@H](CC(=O)O)C(=O)O)[C@@H](C)O)[C@@H](C)CC)[C@@H](C)O)[C@@H](C)CC [compound 3, [D-Ala^2]rGLP-2] (H-H[dA]DGSFSDEMNTILDNLATRDFINWLIQTKITD-OH)
- cleavage products detected [1]: No cleavage products were detected

Compound: HGDGSFSDEMNTILDNLATRDFINWLIQTKITD [compound 4, [Gly^2]rGLP-2]
- cleavage products detected [1]: No cleavage products were detected

Compound: GLP-2: glucagon-like peptide GLP-2 as studied by Hoosein et al (literature); species not stated
- competition with glucagon for binding [2]: neither competes
- concentration stimulating adenylate cyclase [3]: 30 to 50 pM
- stimulation of adenylate cyclase production [4]: nor stimulates
